# The source made the active and inactive calls. The rule behind the calls is not given here.
# Legend:
# P388 [1] = assay: In vivo antitumor activity against mouse P388 cells at 10 mg/kg; format: functional
# 9KB = assay: Cytotoxicity against human 9KB cells; format: functional, cell-based
# [2] = tested on: Lewis lung carcinoma cell line; assay: In vivo antitumor activity against mouse LLC at 1.25 mg/kg; format: functional
# P388 [3] = assay: In vivo antitumor activity against mouse P388 cells at 400 mg/kg; format: functional
# L1210 = assay: Cytotoxicity against mouse L1210 cells; format: functional, cell-based
# CCRF S-180 = assay: Cytotoxicity against mouse S180 cells; format: functional, cell-based
# CA-755 = assay: In vivo antitumor activity against mouse CA-755 cells at 100 mg/kg; format: functional
Structure (SMILES),T/C (P388 [1]) [%],Activity (9KB),T/C [2] [%],T/C (P388 [3]) [%],Activity (L1210),Activity (CCRF S-180),T/C (CA-755) [%]
COc1cc2oc(=O)ccc2cc1C1OC(=O)[C@]2(C)O[C@H]12 (some centres undefined),149,inactive,228,,,,
COc1cc2oc(=O)ccc2cc1C1C=C(C)C(=O)O1 (centres undefined),,inactive,,,,,
COc1cc2ccc(=O)oc2cc1O [SCOPOLETIN],,inactive,,130,inactive,inactive,48
